Laboratory results reported in patent EP1200406B1, “CYCLIC AMIDES AND IMIDES HAVING SELECTIVE ANTAGONIST ACTIVITY AT ALPHA-1D ADRENERGIC RECEPTOR” (RECORDATI INDUSTRIA CHIMICA E FARMACEUTICA S.p.a., priority 1999, dated 2001).
Like-named read-outs stand apart in the source and are kept apart here.

Target: T1, human recombinant α1d adrenoceptor (Homo sapiens, UniProt P25100)
T1 construct: expressed in transfected cells; host or cells: CHO cells (membranes)
T1 sequence (P25100 1-572): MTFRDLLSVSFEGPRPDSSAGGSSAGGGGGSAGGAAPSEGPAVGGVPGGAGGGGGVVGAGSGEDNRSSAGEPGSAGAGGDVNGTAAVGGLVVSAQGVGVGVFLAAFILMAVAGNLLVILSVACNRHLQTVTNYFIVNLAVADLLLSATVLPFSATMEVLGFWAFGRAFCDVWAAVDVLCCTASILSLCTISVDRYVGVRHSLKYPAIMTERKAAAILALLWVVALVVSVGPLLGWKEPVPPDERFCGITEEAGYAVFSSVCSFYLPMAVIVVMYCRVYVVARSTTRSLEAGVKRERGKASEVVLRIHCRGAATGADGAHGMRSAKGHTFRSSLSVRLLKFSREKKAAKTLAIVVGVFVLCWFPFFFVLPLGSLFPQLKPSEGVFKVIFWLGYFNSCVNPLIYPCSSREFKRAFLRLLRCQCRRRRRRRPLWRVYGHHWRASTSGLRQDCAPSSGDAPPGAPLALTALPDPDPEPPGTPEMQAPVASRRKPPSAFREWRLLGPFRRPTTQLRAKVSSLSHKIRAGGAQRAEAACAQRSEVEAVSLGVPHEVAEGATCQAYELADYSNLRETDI
Test: Radioligand binding ([3H]prazosin) on membranes of CHO cells expressing cloned α1d adrenoceptor
Settings: read-out: Affinity (Ki) α1d
Experimental: The determination of affinity for cloned subtypes of human α1 adrenergic receptors was performed in membranes from CHO cells (chinese hamster ovary cells) transfected by electroporation with DNA expressing the genes encoding each α1-adrenoceptor subtype, namely α1a, α1b and α1d.. Cloning and stable expression of the human α1-adrenoceptor gene were performed as previously described (Testa et al., Pharmacol. Comm. 6, 79-86 (1995)). CHO cell membranes were incubated in […] Tris pH 7.4 with 0.2 nM [^3H]prazosin, in a final volume of 1.02 ml for 30 minutes at 25°C, in the absence or presence of competing drugs (1 pM-10 µM). Non-specific binding was determined in the presence of 10 µM phentolamine. Incubation was stopped by addition of ice-cold Tris buffer and rapid filtration through 0.2% polyethyleneimine pretreated Schleicher & Schuell GF52 filters. […] The HeLa cells were grown as monolayers in Dulbecco's modified Eagle's medium (DMEM), supplemented with 10% foetal calf serum and gentamicin (100 µg/ml), 5% CO2, at 37°C. The cells were detached from the growth flask at 95% confluence by a cell scraper and were lysed in ice-cold 5 mM Tris and 5-mM EDTA buffer (pH 7.4). The homogenates were centrifuged at 40000 x g x 20 minutes and the membranes were re-suspended in a small volume of ice-cold 5 mM Tris and 5-mM EDTA buffer (pH 7.4) and immediately frozen and stored at -70°C until use. On the experiment day, the cell membranes were re-suspended in a buffer containing 50 mM Tris (pH 7.4), 2.5 mM MgCl2, 10 µM pargyline (Fargin et al., Nature 335, 358-360 (1988)). […] The incubation was stopped by addition of ice-cold Tris buffer and rapid filtration through 0.2%-polyethyleneimine-pretreated Schleicher & Schuell filters. The inhibition of specific binding of the radioligands by the drugs was analysed to estimate the IC50 value by using the non-linear curve-fitting programme Allfit (De Lean et al., Am. J. Physiol. 235, E97-E102 (1978)). The IC50 value was converted to an affinity constant (Ki) by the equation of Cheng & Prusoff (Biochem. Pharmacol. 22, 3099-3108 (1973)). Data were expressed as mean of Ki.

[1] = human cloned receptor, CHO cell membranes, 0.2 nM [3H]prazosin

Row | Compound | Ki [1] | Ki
1 | CC(CN1CCN(c2cc(Cl)ccc2Cl)CC1)N1C(=O)CC2(CCCC2)CC1=O (centres unmarked) [Example 16, 8-{2-[4-(2,5-Dichlorophenyl)-1-piperazinyl]-1-methylethyl}-8-azaspiro[4.5]decane-7,9-dione] | 0.41 nM | 
2 | O=C1CC2(CCCC2)CC(=O)N1CCN1CCN(c2cc(F)ccc2Cl)CC1 [Example 9, 8-{2-[4-(2-Chloro-5-fluorophenyl)-1-piperazinyl]-ethyl}-8-azaspiro[4.5]decane-7,9-dione] | 0.18 nM | 
3 | CCC1(C)CC(=O)N(CCN2CCN(c3cc(Cl)ccc3Cl)CC2)C(=O)C1 [Example 13, 1-{2-[4-(2,5-Dichlorophenyl)-1-piperazinyl]-ethyl}-4-ethyl-4-methylpiperidinyl-2,6-dione] | 1.23 nM | 
4 | O=C1CC2(C=CN1CCN1CCN(c3cc(Cl)ccc3Cl)CC1)CCCC2 [Example 20, 8-{2-[4-(2,5-Dichlorophenyl)-1-piperazinyl]-ethyl}-8-azaspiro[4.5]dec-9,10-en-7-one] |  | 1.43 nM
5 | O=C1CC2(CCCC2)CC(=O)N1CCN1CCN(c2cc(Br)ccc2Br)CC1 [Example 7, 8-{2-[4-(2,5-Dibromophenyl)-1-piperazinyl]-ethyl}-8-azaspiro[4.5]decane-7,9-dione] | 3.72 nM | 
6 | O=C1CC2(CCCC2)CC(=O)N1CCN1CCC(c2cc(Cl)ccc2Cl)CC1 [Example 17, 8-{2-[4-(2,5-Dichlorophenyl)-1-piperidinyl]-ethyl}-8-azaspiro[4.5]decane-7,9-dione] | 1.5 nM | 
7 | O=C1CC2(CCC2)CC(=O)N1CCN1CCN(c2cc(Cl)ccc2Cl)CC1 [Example 15, 7-{2-[4-(2,5-Dichlorophenyl)-1-piperazinyl]-ethyl}-7-azaspiro[3.5]nonane-6,8-dione] | 2.65 nM | 
8 | Cc1ccc(C)c(N2CCN(CCN3C(=O)CC4(CCCC4)CC3=O)CC2)c1 [Example 5, 8-{2-[4-(2,5-Dimethylphenyl)-1-piperazinyl]-ethyl}-8-azaspiro[4.5]decane-7,9-dione] | 10.1 nM | 
9 | CN(CCN1C(=O)CC2(CCCC2)CC1=O)CCN(C)c1cc(Cl)ccc1Cl [Example 18, N-(2,5-Dichlorophenyl)-N'-{2-(7,9-dioxo-8-azaspiro[4.5]decane-8-yl)-ethyl}-N,N'-dimethyl-1,2-diaminoethane] | 16.4 nM | 
10 | O=C1CC2(CCCCC2)CC(=O)N1CCN1CCN(c2cc(Cl)ccc2Cl)CC1 [Example 11, 3-{2-[4-(2,5-Dichlorophenyl)-1-piperazinyl]-ethyl}-3-azaspiro[5.5]undecane-2,4-dione] | 2.21 nM | 
11 | O=C1CC2(CCCC2)CCN1CCN1CCN(c2cc(F)c(F)cc2F)CC1 [Example 24, 8-{2-[4-(2,4,5-Trifluorophenyl)-1-piperazinyl]-ethyl}-8-azaspiro[4.5]decane-7-one] | 0.31 nM | 
12 | O=C1CC2(CCCC2)CC(=O)N1CCN1CCN(c2cc(C(F)(F)F)ccc2F)CC1 [Example 6, 8-{2-[4-(2-Fluoro-5-trifluoromethylphenyl)-1-piperazinyl]-ethyl}-8-azaspiro[4.5]decane-7,9-dione] | 7.56 nM | 
13 | O=C1CCCC(=O)N1CCN1CCN(c2cc(Cl)ccc2Cl)CC1 [Example 2, 1-{2-[4-(2,5-Dichlorophenyl)-1-piperazinyl]-ethyl}-piperidinyl-2,6-dione] |  | 3.25 nM
14 | O=C1CC2(CCCC2)C(=O)N1CCN1CCN(c2cc(Cl)ccc2Cl)CC1 [Example 14, 2-{2-[4-(2,5-Dichlorophenyl)-1-piperazinyl]-ethyl}-2-azaspiro[4.4]nonane-1,3-dione] | 3.11 nM | 
15 | N#Cc1ccc(Cl)cc1N1CCN(CCN2C(=O)CC3(CCCC3)CC2=O)CC1 [Example 8, 8-{2-[4-(5-Chloro-2-cyanophenyl)-1-piperazinyl]-ethyl}-8-azaspiro[4.5]decane-7,9-dione] | 0.2 nM | 
16 | O=C1CC2(CCCC2)CC(=O)N1CCN1CCN(c2cc(I)ccc2Cl)CC1 [Example 10, 8-{2-[4-(2-Chloro-5-iodophenyl)-1-piperazinyl]-ethyl}-8-azaspiro[4.5]decane-7,9-dione] | 15.3 nM | 
17 | Cc1ccc(F)c(N2CCN(CCN3C(=O)CC4(CCCC4)CC3=O)CC2)c1 [Example 4, 8-{2-[4-(2-Fluoro-5-methylphenyl)-1-piperazinyl]-ethyl}-8-azaspiro[4.5]decane-7,9-dione] | 2.38 nM | 
